Laboratory results as given in patent US20040009511A1, “Identification of compounds which stimulate bone formation using a cell-based screening assay targeting BMP signaling” (priority 2002, published 2004).

Key:
Format in all cases: cell-based
[1] = test system: 9×SBE-6×OSE2-OC-luc reporter construct in 2T3 C-17 cells; experiment: Luciferase assay, 9×SBE-6×OSE2-OC-luc reporter stably transfected in 2T3 clone C-17; parameters: Luciferase Activity: unit not given here; settings: for Luciferase Activity / Luciferase Activity (fold increase) / Effect on luciferase activity of the reporter construct / Luciferase Activity, value in parentheses (fold increase): 24 hours; for Maximal effect, fold increase in luciferase activity: over the concentrations tested
Experimental: (§1) An oligonucleotide containing 9 copies of Smad1 response element (9×SBE) and 6 copies of Cbfa1 response element (6×OSE2) was synthesized in the DNA laboratory at University of Texas Health Science Center at San Antonio. The osteocalcin basal promoter (OC, −155/+1) was amplified by Polymerase Chain Reaction (PCR) using mouse genomic DNA as a template and cloned into pGL3 vector. An 9×SBE-6×OSE2 oligonucleotide was cloned upstream of osteocalcin basal promoter.
(§2) C2C12 and 2T3 cells were plated in 6-well culture plates at densities of 4×10^5 and 2×10^5 cells/well and cultured with DMEM or α minimal essential medium (α MEM) supplemented with 10% FCS for 24 hours. A 9×SBE-6×OSE2-OC-luc-reporter construct (2 μg/well) was co-transfected with pcDNA3 empty vector (0.2 mg/well) in C2C12 and 2T3 cells using lipofactamine plus reagents (Gibco/BRL). Forty eight hours later, G418 (200 μg/ml) was added to the culture plates. Four weeks after G418 selection, the G418 resistant cells were plated in 96-well plates at the density of 1 cell/well and cloned by limiting dilution method.
(§3) C2C12 and 2T3 cells, in which 9×SBE-6×OSE2-OC-luc-reporter construct was stably transfected, were plated in 96-well culture plates at densities of 1×10^4 and 0.5×10^4 cells/well and cultured for 24 hours. The medium was changed to fresh medium supplemented with 2% FCS and different growth factors or hormone were added to culture medium for 24 hours or different compounds were added to culture medium for 2, 6, 12, 24 and 48 hours. The cell lysates were extracted and luciferase activities were determined by luciferase assay kit (Promega, Madison, Wis.) using a Luminometer.
(§4) At the end of the incubation, the cell lysates were extracted using lysis buffer and luciferase activities were measured using a luciferase assay kit (Promega).

[2] = test system: 9×SBE-6×OSE2-OC-luc reporter construct in C2C12 C-10-62 cells; experiment: Luciferase assay, 9×SBE-6×OSE2-OC-luc reporter stably transfected in C2C12 clone C-10-62; settings: for Maximal effect, fold increase in luciferase activity: over the concentrations tested; for Effect on luciferase activity of the reporter construct: 24 hours
Experimental: as §1, §2, §3, §4

[3] = test system: 9×SBE-6×OSE2-OC-luc reporter construct; experiment: Luciferase assay, 9×SBE-6×OSE2-OC-luc reporter construct, cells not specified
Description: as §1, §3
Further, a reporter construct which contains multiple copies of both Smad1 (SBE) and Cbfa1 (OSE2) response elements (9×SBE-6×OSE2-OC-luc) was made.

[4] = 2-ME 1.25 μM, 2T3 cell clone 17
[5] = 9-cis RA 1.25 μM, 2T3 cell clone 17
[6] = 9-cis RA 2.5 μM, 2T3 cell clone 17
[7] = 9-cis RA 5 μM, 2T3 cell clone 17
[8] = 9-cis RA 10 μM, 2T3 cell clone 17
[9] = All-trans RA 1.25 μM, 2T3 cell clone 17
[10] = All-trans RA 2.5 μM, 2T3 cell clone 17
[11] = All-trans RA 5 μM, 2T3 cell clone 17
[12] = All-trans RA 10 μM, 2T3 cell clone 17
[13] = TN-16 0.039 μM, 2T3 cell clone 17
[14] = TN-16 0.078 μM, 2T3 cell clone 17
[15] = TN-16 0.156 μM, 2T3 cell clone 17
[16] = TN-16 0.3125 μM, 2T3 cell clone 17
[17] = TN-16 0.625 μM, 2T3 cell clone 17
[18] = TN-16 1.25 μM, 2T3 cell clone 17
[19] = TN-16 2.5 μM, 2T3 cell clone 17

## COc1cc2c(cc1O)CC[C@@H]1[C@@H]2CC[C@]2(C)[C@@H](O)CC[C@@H]12 [2-ME, 2-methoxyestradiol, reference compound]
[1]; 2-ME 0.625 μM, 2T3 cell clone 17
  Luciferase Activity: 0.052
[1]; [4]
  Luciferase Activity: 0.059
  Luciferase Activity (fold increase): 1.2 fold
[1]; 2-ME 2.5 μM, 2T3 cell clone 17
  Luciferase Activity: 0.065
  Luciferase Activity (fold increase): 1.3 fold
[1]; 2-ME 5 μM, 2T3 cell clone 17
  Luciferase Activity: 0.102
  Luciferase Activity (fold increase): 2.0 fold
[1]; 2-ME 10 μM, 2T3 cell clone 17
  Luciferase Activity: 0.130
  Luciferase Activity (fold increase): 2.6 fold
[1]; 2T3 C-17 cells
  Effect on luciferase activity of the reporter construct: stimulated the reporter construct in a dose-dependent manner

## CC1=C(/C=C/C(C)=C\C=C\C(C)=C\C(=O)O)C(C)(C)CCC1 [9-cis RA, 9-cis retinoic acid, reference compound]
[2]
  Maximal effect, fold increase in luciferase activity: 5 fold
[1]; 2T3 C-17 cells
  Maximal effect, fold increase in luciferase activity: 5 fold
[1]; [5]
  Luciferase Activity: 0.160
  Luciferase Activity, value in parentheses (fold increase): 3.6 fold
[1]; [6]
  Luciferase Activity: 0.160
  Luciferase Activity, value in parentheses (fold increase): 3.6 fold
[1]; [7]
  Luciferase Activity: 0.164
  Luciferase Activity, value in parentheses (fold increase): 3.6 fold
[1]; [8]
  Luciferase Activity: 0.226
  Luciferase Activity, value in parentheses (fold increase): 5.0 fold

## CC1=C(/C=C/C(C)=C/C=C/C(C)=C/C(=O)O)C(C)(C)CCC1 [All-trans RA, all-trans retinoic acid, reference compound]
[2]
  Maximal effect, fold increase in luciferase activity: 5 fold
[1]; 2T3 C-17 cells
  Maximal effect, fold increase in luciferase activity: 5 fold
[1]; [9]
  Luciferase Activity: 0.113
  Luciferase Activity, value in parentheses (fold increase): 2.5 fold
[1]; [10]
  Luciferase Activity: 0.142
  Luciferase Activity, value in parentheses (fold increase): 3.2 fold
[1]; [11]
  Luciferase Activity: 0.164
  Luciferase Activity, value in parentheses (fold increase): 3.6 fold
[1]; [12]
  Luciferase Activity: 0.219
  Luciferase Activity, value in parentheses (fold increase): 4.9 fold

## CC(Nc1ccccc1)=C1C(=O)NC(Cc2ccccc2)C1=O (centres unmarked) [TN-16, reference compound]
[1]; 2T3 C-17 cells
  Effect on luciferase activity of the reporter construct: stimulated the reporter construct in a dose-dependent manner
  Maximal effect, fold increase in luciferase activity: 5 fold
[1]; [13]
  Luciferase Activity: 0.022
  Luciferase Activity (fold increase): 0.9 fold
[1]; [14]
  Luciferase Activity: 0.037
  Luciferase Activity (fold increase): 1.6 fold
[1]; [15]
  Luciferase Activity: 0.036
  Luciferase Activity (fold increase): 1.6 fold
[1]; [16]
  Luciferase Activity: 0.038
  Luciferase Activity (fold increase): 1.6 fold
[1]; [17]
  Luciferase Activity: 0.057
  Luciferase Activity (fold increase): 2.5 fold
[1]; [18]
  Luciferase Activity: 0.081
  Luciferase Activity (fold increase): 3.5 fold
[1]; [19]
  Luciferase Activity: 0.079
  Luciferase Activity (fold increase): 3.4 fold
[1]; TN-16 5 μM, 2T3 cell clone 17
  Luciferase Activity: 0.111
  Luciferase Activity (fold increase): 4.8 fold
[1]; TN-16 10 μM, 2T3 cell clone 17
  Luciferase Activity: 0.098
  Luciferase Activity (fold increase): 4.2 fold

## TGF-β
[2]
  Effect on luciferase activity of the reporter construct: no significant effects
[1]; 2T3 C-17 cells
  Luciferase activity normalized to protein content: no significant effect
  Maximal effect, fold increase in luciferase activity: 3 fold
[1]; TGF-β 0.0195 ng/ml, 2T3 C-17 cells
  Luciferase Activity: 0.046
[1]; TGF-β 0.039 ng/ml, 2T3 C-17 cells
  Luciferase Activity: 0.052
[1]; TGF-β 0.078 ng/ml, 2T3 C-17 cells
  Luciferase Activity: 0.053
[1]; TGF-β 0.156 ng/ml, 2T3 C-17 cells
  Luciferase Activity: 0.062
[1]; TGF-β 0.3125 ng/ml, 2T3 C-17 cells
  Luciferase Activity: 0.08
[1]; TGF-β 0.625 ng/ml, 2T3 C-17 cells
  Luciferase Activity: 0.09
[1]; TGF-β 1.25 ng/ml, 2T3 C-17 cells
  Luciferase Activity: 0.102
[1]; TGF-β 2.5 ng/ml, 2T3 C-17 cells
  Luciferase Activity: 0.156
[1]; TGF-β 5 ng/ml, 2T3 C-17 cells
  Luciferase Activity: 0.077
[1]; TGF-β 10 ng/ml, 2T3 C-17 cells
  Luciferase Activity: 0.081

## acid FGF: Acidic Fibroblast Growth Factor
[2]
  Effect on luciferase activity of the reporter construct: no significant effects
[1]; acid FGF 0.195 ng/ml, 2T3 C-17 cells
  Luciferase Activity: 0.06
[1]; acid FGF 0.39 ng/ml, 2T3 C-17 cells
  Luciferase Activity: 0.057
[1]; acid FGF 0.78 ng/ml, 2T3 C-17 cells
  Luciferase Activity: 0.058
[1]; acid FGF 1.56 ng/ml, 2T3 C-17 cells
  Luciferase Activity: 0.051
[1]; acid FGF 3.125 ng/ml, 2T3 C-17 cells
  Luciferase Activity: 0.052
[1]; acid FGF 6.25 ng/ml, 2T3 C-17 cells
  Luciferase Activity: 0.054
[1]; acid FGF 12.5 ng/ml, 2T3 C-17 cells
  Luciferase Activity: 0.051
[1]; acid FGF 25 ng/ml, 2T3 C-17 cells
  Luciferase Activity: 0.052
[1]; acid FGF 50 ng/ml, 2T3 C-17 cells
  Luciferase Activity: 0.058
[1]; acid FGF 100 ng/ml, 2T3 C-17 cells
  Luciferase Activity: 0.075

B1: noggin: BMP binding protein noggin (protein, UniProt Q13253 28-232, looked up)
Noggin: QHYLHIRPAPSDNLPLVDLIEHPDPIFDPKEKDLNETLLRSLLGGHYDPGFMATSPPEDRPGGGGGAAGGAEDLAELDQLLRQRPSGAMPSEIKGLEFSEGLAQGKKQRLSKKLRRKLQMWLWSQTFCPVLYAWNDLGSRFWPRYVKVGSCFSKRSCSVPEGMVCKPSKSVHLTVLRWRCQRRGGQRCGWIPIQYPIISECKCSC
[3]; 500 ng/ml of noggin, 100 ng/ml of BMP-2
  Effect on BMP-2-induced reporter activity: completely blocked
[3]; dose-response
  Inhibition of BMP-2-induced luciferase activity: inhibit BMP-2-induced luciferase activity in a dose-dependent manner

B2: PTH: Parathyroid Hormone (protein, UniProt P01270 32-115, looked up)
Parathyroid hormone: SVSEIQLMHNLGKHLNSMERVEWLRKKLQDVHNFVALGAPLAPRDAGSQRPRKKEDNVLVESHEKSLGEADKADVNVLTKAKSQ
modifications: Parathyroid hormone
[1]; PTH 0.195 ng/ml, 2T3 C-17 cells
  Luciferase Activity: 0.05
[1]; PTH 0.39 ng/ml, 2T3 C-17 cells
  Luciferase Activity: 0.053
[1]; PTH 0.78 ng/ml, 2T3 C-17 cells
  Luciferase Activity: 0.047
[1]; PTH 1.56 ng/ml, 2T3 C-17 cells
  Luciferase Activity: 0.05
[1]; PTH 3.125 ng/ml, 2T3 C-17 cells
  Luciferase Activity: 0.05
[1]; PTH 6.25 ng/ml, 2T3 C-17 cells
  Luciferase Activity: 0.048
[1]; PTH 12.5 ng/ml, 2T3 C-17 cells
  Luciferase Activity: 0.051
[1]; PTH 25 ng/ml, 2T3 C-17 cells
  Luciferase Activity: 0.053
[1]; PTH 50 ng/ml, 2T3 C-17 cells
  Luciferase Activity: 0.053
[1]; PTH 100 ng/ml, 2T3 C-17 cells
  Luciferase Activity: 0.055
